# Key:
# Assay type in all cases: cell-based
# [1] = system: IL-2 secretion, Jurkat T cells; assay: Inhibition of IL-2 secretion (PHA-stimulated Jurkat T cells, ELISA); settings: Homo sapiens; Jurkat T cells stimulated with PHA, 20 to 24 hours
# Protocol: The CRAC channel modulatory activity of the compounds were thus evaluated by measuring the secretion of IL-2 by antigen stimulated T-cells in vitro. Alternatively, such activity can also be evaluated by assay methods known to one skilled in the art.
# Inhibition of IL-2 secretion: Jurkat T cells were seeded at a density of 0.5 to 1 million cells per well in RPMI medium. Test compounds from this invention were added to the cells at different concentrations. This was followed by the addition of PHA, a T cell mitogen after 10 minutes.
# The cells were then incubated for 20 to 24 hours in a CO2 incubator at 37° C. After incubation with the compounds, cells were centrifuged, collected the supernatant and processed for ELISA to quantitate the amount of IL-2 secreted. A commercial ELISA kit (R&D Systems, Inc. Minneapolis, Minn., USA) was used to estimate the IL-2 concentrations. Amount of IL-2 secreted by cells stimulated with PHA was considered as a 100% maximal signal and the decrease in amount of IL-2 secreted by cells treated with the test compounds was expressed as percent inhibition of the maximal signal. The dose response data was analyzed using 4-parametric sigmoidal dose response (variable slope) curve-fit.
# SOCE, Jurkat E6.1 cells = assay: SOCE inhibition (thapsigargin/calcium influx, FLIPR); settings: Homo sapiens, thapsigargin, calcium chloride
# Protocol: SOCE inhibition: Jurkat E6.1 cells were seeded at a density of 1-2×10^5 cells per well in calcium-4 dye prepared in calcium free HBSS (Sigma, USA). Test compounds from this invention were added to the cells at different concentrations. This was followed by the addition of thapsigargin (TG), a SERCA inhibitor, to empty the stores of calcium. Calcium chloride was added to the cells after 10-30 min to induce calcium influx and the fluorescence was measured for 10 min using the FLIPR-Tetra detection system. Fluorescence was also measured using a plate reader at 485 nm excitation and 520 nm emission (Synergy2, Biotek, USA) after 30-90 minutes of calcium addition. Fluorescence observed in cells treated with Thapsigargin and calcium chloride solution was considered 100% maximal signal and the reduced fluorescent signal observed in the presence of test compounds was expressed as percent inhibition of the maximal signal. The dose response data was analyzed using 4-parametric sigmoidal dose response (variable slope) curve-fit.
# [2] = system: NFAT-Luc reporter gene, HEK 293 cells; assay: NFAT transcriptional activity (NFAT-Luc reporter); settings: Homo sapiens, HEK293, thapsigargin
# Protocol: NFAT Transcriptional Activity: HEK 293 cells were stably transfected with a NFAT-Luc reporter gene. 30,000-80,000 cells were seeded per well. Test compounds from this invention were added to the cells at different concentrations. Thapsigargin (TG) was added after 10 mins and the cells were incubated for 4-8 h. NFAT transcriptional activity was measured using BrightGlo reagent (Promega USA). Luminescence observed in cells treated with thapsigargin was considered 100% maximal signal and the reduced fluorescent signal observed in the presence of test compounds was expressed as percent inhibition of the maximal signal. The data was analyzed using 4-parametric sigmoidal dose response (variable slope) curve-fit.
SMILES,IC50 [1],"IC50 (SOCE, Jurkat E6.1 cells)",IC50 [2]
"COc1ccc(C2=NOC(C)(C)C2=O)cc1-c1ccc(C(=O)Nc2c(F)cccc2F)s1 [Example 160, N-(2,6-Difluorophenyl)-5-(5-(5,5-dimethyl-4-oxo-4,5-dihydroisoxazol-3-yl)-2-methoxy-phenyl)thiophene-2-carboxamide]",< 100 nM,< 1000 nM,–
"COc1ccc(-c2nn(C)c(=O)o2)cc1-c1ccc(NC(=O)c2c(F)cccc2Cl)cc1 [Example 41, 2-Chloro-6-fluoro-N-(2′-methoxy-5′-(4-methyl-5-oxo-4,5-dihydro-1,3,4-oxadiazol-2-yl)[1,1′-biphenyl]-4-yl)benzamide]",–,< 1000 nM,–
"COc1ccc(C2=NOC(C)(C)C2=O)cc1-c1ccc(NC(=O)c2c(F)cccc2F)cc1 [Example 15, N-(5′-(5,5-dimethyl-4-oxo-4,5-dihydroisoxazol-3-yl)-2′-methoxy-[1,1′-biphenyl]-4-yl)-2,6-difluorobenzamide]",–,< 1000 nM,–
"Cc1nnsc1C(=O)Nc1ccc(-c2cccc(-c3nn(C)c(=O)o3)c2C)cc1 [Example 50, 4-Methyl-N-(2′-methyl-3′-(4-methyl-5-oxo-4,5-dihydro-1,3,4-oxadiazol-2-yl)-[1,1′-biphenyl]-4-yl)-1,2,3-thiadiazole-5-carboxamide]",–,–,< 500 nM
"Cc1c(-c2nn(C)c(=O)o2)cccc1-c1ccc(C(=O)Nc2c(F)cccc2F)s1 [Example 176, N-(2,6-Difluorophenyl)-5-(2-methyl-3-(4-methyl-5-oxo-4,5-dihydro-1,3,4-oxadiazol-2-yl)phenyl)thiophene-2-carboxamide]",< 100 nM,< 1000 nM,< 500 nM
"Cc1c(C2=NOC(C)(C)C2=O)cccc1-c1ccc(NC(=O)c2c(F)cccc2F)cc1 [Example 29, N-(3′-(5,5-Dimethyl-4-oxo-4,5-dihydroisoxazol-3-yl)-2′-methyl-[1,1′-biphenyl]-4-yl)-2,6-difluorobenzamide]",< 100 nM,–,< 500 nM
"CNc1ccc(C2=NOC(C)(C)C2=O)cc1-c1ccc(NC(=O)c2c(F)cccc2F)cc1 [Example 135, N-(5′-(5,5-Dimethyl-4-oxo-4,5-dihydroisoxazol-3-yl)-2′-(methylamino)-[1,1′-biphenyl]-4-yl)-2,6-difluorobenzamide]",< 100 nM,< 1000 nM,< 500 nM
"COc1c(C2=NOC(C)(C)C2=O)cccc1-c1ccc(NC(=O)c2c(F)cccc2F)cc1 [Example 31, N-(3′-(5,5-Dimethyl-4-oxo-4,5-dihydroisoxazol-3-yl)-2′-methoxy-[1,1′-bipheny;]-4-yl)-2,6-difluorobenzamide]",100 to 1000 nM,–,–
"COc1ccc(-c2nn(C)c(=O)o2)cc1-c1ccc(NC(=O)c2c(F)cccc2F)cc1 [Example 40, 2,6-Difluoro-N-(2′-methoxy-5′-(4-methyl-5-oxo-4,5-dihydro-1,3,4-oxadiazol-2-yl)[1,1′-biphenyl]-4-yl)benzamide]",< 100 nM,–,–
"CCc1ccc(C2=NOC(C)(C)C2=O)cc1-c1ccc(C(=O)Nc2ccncc2C)s1 [Example 158, 5-(5-(5,5-Dimethyl-4-oxo-4,5-dihydroisoxazol-3-yl)-2-ethylphenyl)-N-(3-methylpyridin-4-yl)thiophene-2-carboxamide]",< 100 nM,–,–

# Continued, in another order:
IC50 [1],"IC50 (SOCE, Jurkat E6.1 cells)",SMILES,IC50 [2]
100 to 1000 nM,–,"CC(C)Oc1ccc(C2=NOC(C)(C)C2=O)cc1-c1cnc(NC(=O)c2c(F)cccc2F)cn1 [Example 126, N-(5-(5-(5,5-dimethyl-4-oxo-4,5-dihydroisoxazol-3-yl)-2-isopropoxy-phenyl)pyrazin-2-yl)-2,6-difluorobenzamide]",–
100 to 1000 nM,–,"COC1C(c2ccc(C)c(-c3cnc(NC(=O)c4c(F)cccc4F)cn3)c2)=NOC1(C)C (centres unmarked) [Example 23, 2,6-difluoro-N-(5-(5-(4-methoxy-5,5-dimethyl-4,5-dihydroisoxazol-3-yl)-2-methylphenyl)pyrazin-2-yl)benzamide]",–
100 to 1000 nM,–,"Cc1ccc(C2=NOC(C)(C)C2=O)cc1-c1cnc(C(=O)Nc2c(F)cccc2F)cn1 [Example 121, N-(2,6-Difluorophenyl)-5-(5-(5,5-dimethyl-4-oxo-4,5-dihydroisoxazol-3-yl)-2-methylphenyl)pyrazine-2-carboxamide]",–
100 to 1000 nM,–,"Cc1ccc(C2=NOC(C)(C)C2=O)cc1-c1cnc(NC(=O)c2ccccc2Cl)cn1 [Example 78, 2-Chloro-N-(5-(5-(5,5-dimethyl-4-oxo-4,5-dihydroisoxazol-3-yl)-2-methylphenyl)pyrazin-2-yl)benzamide]",–

# Source: US10292981B2, “Oxazoline and isoxazoline derivatives as CRAC modulators” (LUPIN LIMITED, priority 2010, dated 2019)
